Experimental data from patent US20230219904A1 (SYNGENTA CROP PROTECTION AG, priority 2020, published 2023).

Key:
Type in all cases: in vivo
[1] = test system: ABUTH (Abutilon theophrasti); assay: Comparative test, PRE application (Table B2); conditions: evaluated after 14 days
Experimental: (§1) TABLE B2—COMPARATIVE TEST
(§2) Seeds of test species were sown in standard soil in pots. After cultivation for one day under controlled conditions in a glasshouse (at 24/16° C., day/night; 14 hours light; 65% humidity), the plants were sprayed with an aqueous spray solution derived from the formulation of the technical active ingredient in 0.6 ml acetone and 45 ml formulation solution containing 10.6% Emulsogen EL (Registry number 61791-12-6), 42.2% N-methyl pyrrolidone, 42.2% dipropylene glycol monomethyl ether (CAS RN 34590-94-8) and 0.2% X-77 (CAS RN 11097-66-8). The test plants were then grown in a glasshouse under controlled conditions in a glasshouse (at 24/16° C., day/night; 14 hours light; 65% humidity) and watered twice daily. After 14 days, the test was evaluated (100=total damage to plant; 0=no damage to plant).
(§3) Test species: ABUTH (Abutilon theophrasti); BRO′I′L (Bromus tectorum); ECHCG (Echinochloa crus-galli); SINAR (Sinapis arvensis).

SINAR (Sinapis arvensis) = assay: Comparative test, PRE application (Table B2); conditions: evaluated after 14 days
Experimental: as §1, §2, §3

BROTE (Bromus tectorum) = assay: Comparative test, PRE application (Table B2); conditions: evaluated after 14 days
Experimental: as §1, §2, §3

[2] = test system: ECHCG (Echinochloa crus-galli); assay: Comparative test, PRE application (Table B2); conditions: evaluated after 14 days
Experimental: as §1, §2, §3

[3] = test system: Echinochloa crus-galh (ECHCG); assay: Post-emergence herbicidal glasshouse test (Table B1); conditions: evaluated after 13 days
Method in brief: (§4)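 Potted plants, glasshouse 24/16° C, 14 h light, 65% RH; spray at 1 d (pre) or 8 d (post) post-sowing; 500 g/h default; acetone/water 50:50 + 0.5% Tween 20. Damage read at 13 d, scored 1–5 (5=80-100%, 1=0-19%).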

[4] = test system: Amaranthus retoflexus (AMARE); assay: as above; conditions: evaluated after 13 days
Method in brief: as §4

[5] = test system: Ipomoea hederacea (IPOHE); assay: as above; conditions: evaluated after 13 days
Method in brief: as §4

[6] = test system: Abutilon theophrasti (ABUTH); assay: as above; conditions: evaluated after 13 days
Method in brief: as §4

Setaria faberi (SETFA) [7] = assay: as above; conditions: evaluated after 13 days
Method in brief: as §4

[8] = test system: Echinochloa crus-galh (ECHCG); assay: Pre-emergence herbicidal glasshouse test (Table B1); conditions: evaluated after 13 days
Method in brief: as §4

[9] = test system: Amaranthus retoflexus (AMARE); assay: as above; conditions: evaluated after 13 days
Method in brief: as §4

[10] = test system: Ipomoea hederacea (IPOHE); assay: as above; conditions: evaluated after 13 days
Method in brief: as §4

[11] = test system: Abutilon theophrasti (ABUTH); assay: as above; conditions: evaluated after 13 days
Method in brief: as §4

Setaria faberi (SETFA) [12] = assay: as above; conditions: evaluated after 13 days
Method in brief: as §4

Row | Compound | damage to plant ABUTH (100=total damage to plant; 0=no damage to plant) ([1]; 30 g/ha) | damage to plant ABUTH (100=total damage to plant; 0=no damage to plant) ([1]; 130 g/ha) | damage to plant ABUTH (100=total damage to plant; 0=no damage to plant) ([1]; 250 g/ha) | damage to plant SINAR (100=total damage to plant; 0=no damage to plant) (SINAR (Sinapis arvensis); 30 g/ha) | damage to plant SINAR (100=total damage to plant; 0=no damage to plant) (SINAR (Sinapis arvensis); 130 g/ha) | damage to plant SINAR (100=total damage to plant; 0=no damage to plant) (SINAR (Sinapis arvensis); 250 g/ha) | damage to plant BROTE (100=total damage to plant; 0=no damage to plant) (BROTE (Bromus tectorum); 30 g/ha) | damage to plant BROTE (100=total damage to plant; 0=no damage to plant) (BROTE (Bromus tectorum); 130 g/ha) | damage to plant BROTE (100=total damage to plant; 0=no damage to plant) (BROTE (Bromus tectorum); 250 g/ha) | damage to plant ECHCG (100=total damage to plant; 0=no damage to plant) ([2]; 30 g/ha) | damage to plant ECHCG (100=total damage to plant; 0=no damage to plant) ([2]; 130 g/ha) | damage to plant ECHCG (100=total damage to plant; 0=no damage to plant) ([2]; 250 g/ha) | POST Application ECHCG, percentage damage on five-point scale ([3]; applied at 125 g/ha) | POST Application AMARE, percentage damage on five-point scale ([4]; applied at 125 g/ha) | POST Application IPOHE, percentage damage on five-point scale ([5]; applied at 125 g/ha) | POST Application SETFA, percentage damage on five-point scale (Setaria faberi (SETFA) [7]; applied at 125 g/ha) | PRE Application ECHCG, percentage damage on five-point scale ([8]; applied at 125 g/ha) | PRE Application AMARE, percentage damage on five-point scale ([9]; applied at 125 g/ha) | PRE Application IPOHE, percentage damage on five-point scale ([10]; applied at 125 g/ha) | PRE Application ABUTH, percentage damage on five-point scale ([11]; applied at 125 g/ha) | also measured
1 | CC(=O)Nc1c(OC(F)(F)F)ccc(C(=O)Nc2nnnn2C)c1Cl [Compound 1.002] | 0 | 10 | 80 | 10 | 30 | 80 | 0 | 10 | 70 | 20 | 30 | 80 | – | – | – | – | – | – | – | – | POST Application ECHCG, percentage damage on five-point scale ([3]; applied at 500 g/h): 5 (5=80-100%); POST Application AMARE, percentage damage on five-point scale ([4]; applied at 500 g/h): 5 (5=80-100%); POST Application IPOHE, percentage damage on five-point scale ([5]; applied at 500 g/h): 5 (5=80-100%); POST Application ABUTH, percentage damage on five-point scale ([6]; applied at 500 g/h): 5 (5=80-100%); POST Application SETFA, percentage damage on five-point scale (Setaria faberi (SETFA) [7]; applied at 500 g/h): 5 (5=80-100%); PRE Application ECHCG, percentage damage on five-point scale ([8]; applied at 500 g/h): 5 (5=80-100%); PRE Application AMARE, percentage damage on five-point scale ([9]; applied at 500 g/h): 5 (5=80-100%); PRE Application IPOHE, percentage damage on five-point scale ([10]; applied): 1 (1=0-19%); PRE Application ABUTH, percentage damage on five-point scale ([11]; applied at 500 g/h): 5 (5=80-100%); PRE Application SETFA, percentage damage on five-point scale (Setaria faberi (SETFA) [12]; applied at 500 g/h): 2 (2=20-39%)
2 | CCC(=O)Nc1c(OC(F)(F)F)ccc(C(=O)Nc2nnnn2C)c1Cl [Compound 1.007, 2-chloro-N-(1-methyltetrazol-5-yl)-3-(propanoylamino)-4-(trifluoromethoxy)benzamide] | 0 | 60 | 90 | 10 | 60 | 100 | 0 | 0 | 20 | 20 | 70 | 90 | 5 (5=80-100%) | 5 (5=80-100%) | 4 (4=60-79%) | 5 (5=80-100%) | 5 (5=80-100%) | 5 (5=80-100%) | 5 (5=80-100%) | 5 (5=80-100%) | PRE Application SETFA, percentage damage on five-point scale (Setaria faberi (SETFA) [12]; applied at 125 g/ha): 5 (5=80-100%)
3 | Cn1nnnc1NC(=O)c1ccc(OC(F)(F)F)c(NC(=O)c2ccccn2)c1Cl [Compound 1.012, N-[2-chloro-3-[(1-methyltetrazol-5-yl)carbamoyl]-6-(trifluoromethoxy)phenyl]pyridine-2-carboxamide] | 0 | 0 | 10 | 0 | 70 | 80 | 0 | 0 | 70 | 10 | 30 | 30 | 3 (3=40-59%) | 4 (4=60-79%) | 4 (4=60-79%) | 4 (4=60-79%) | 5 (5=80-100%) | 5 (5=80-100%) | 4 (4=60-79%) | 5 (5=80-100%) | POST Application ABUTH, percentage damage on five-point scale ([6]; applied at 125 g/ha): 4 (4=60-79%); PRE Application SETFA, percentage damage on five-point scale (Setaria faberi (SETFA) [12]; applied at 125 g/ha): 5 (5=80-100%)
